Experimental data: PubChem BioAssay AID2060906 (Molecular Pharmacology Branch, DTP, NCI, 2025)

System: 485176-168-R4-J1-PDC complex spheroid growth
Test: Anticancer human tumor 485176-168-R4-J1-PDC patient-derived pancreatic adenocarcinoma cell line growth inhibition [RAS]
Settings: for IC50: curve of first compound; for viability, T/C: stronger effect = lower value; active means viability on the fitted dose curve at most 10% of control; inactive means the rest
Outline: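 Tumour cells grown as complex spheroids with HUVEC endothelial cells and mesenchymal stem cells, treated with RAS pathway inhibitor combinations. Each agent spans half-log steps from near clinical Cmax, or 10 microM where Cmax is unknown.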
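Further: spheroids exposed to compounds for seven days before readout.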
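Wherever viability, T/C is given: luminescence viability expressed relative to DMSO vehicle wells set as 100%.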

CC1(C)CCC(Nc2ncc(C(F)(F)F)c(-c3c[nH]c4c(P(C)(C)=O)c(C#N)ccc34)n2)CN1 (configuration not stated) + C#Cc1c(F)ccc2cc(O)cc(-c3ncc4c(N5CC6CCC(C5)N6)nc(OCC56CCCN5CC(F)C6)nc4c3F)c12
262 nM: IC50 (second compound 1 µM)
> 300 nM: IC50 (second compound 0.0316 µM) | IC50 (second compound 0.1 µM) | IC50 (second compound 0.316 µM) | IC50 (second compound 3.16 µM)
114 nM: IC50 (second compound 10 µM)
inactive: viability, T/C (second compound 0.0316 µM, first compound 0.000949 µM) 106% | viability, T/C (second compound 0.0316 µM, first compound 0.003 µM) 98.2% | viability, T/C (second compound 0.0316 µM, first compound 0.00949 µM) 83.8% | viability, T/C (second compound 0.0316 µM, first compound 0.03 µM) 59.8% | viability, T/C (second compound 0.0316 µM, first compound 0.0949 µM) 61.8% | viability, T/C (second compound 0.0316 µM, first compound 0.3 µM) 56.2% | viability, T/C (second compound 0.1 µM, first compound 0.000949 µM) 98.5% | viability, T/C (second compound 0.1 µM, first compound 0.003 µM) 114% | viability, T/C (second compound 0.1 µM, first compound 0.00949 µM) 79.1% | viability, T/C (second compound 0.1 µM, first compound 0.03 µM) 59.7% | viability, T/C (second compound 0.1 µM, first compound 0.0949 µM) 56.9% | viability, T/C (second compound 0.1 µM, first compound 0.3 µM) 50% | viability, T/C (second compound 0.316 µM, first compound 0.000949 µM) 106% | viability, T/C (second compound 0.316 µM, first compound 0.003 µM) 121% | viability, T/C (second compound 0.316 µM, first compound 0.00949 µM) 84.5% | viability, T/C (second compound 0.316 µM, first compound 0.03 µM) 55.8% | viability, T/C (second compound 0.316 µM, first compound 0.0949 µM) 53.1% | viability, T/C (second compound 0.316 µM, first compound 0.3 µM) 60.5% | viability, T/C (second compound 1 µM, first compound 0.000949 µM) 118% | viability, T/C (second compound 1 µM, first compound 0.003 µM) 96% | viability, T/C (second compound 1 µM, first compound 0.00949 µM) 80.5% | viability, T/C (second compound 1 µM, first compound 0.03 µM) 68.1% | viability, T/C (second compound 1 µM, first compound 0.0949 µM) 53.5% | viability, T/C (second compound 1 µM, first compound 0.3 µM) 50.4% | viability, T/C (second compound 3.16 µM, first compound 0.000949 µM) 107% | viability, T/C (second compound 3.16 µM, first compound 0.003 µM) 97.9% | viability, T/C (second compound 3.16 µM, first compound 0.00949 µM) 84.5% | viability, T/C (second compound 3.16 µM, first compound 0.03 µM) 63.8% | viability, T/C (second compound 3.16 µM, first compound 0.0949 µM) 58.3% | viability, T/C (second compound 3.16 µM, first compound 0.3 µM) 53% | viability, T/C (second compound 10 µM, first compound 0.000949 µM) 99.3% | viability, T/C (second compound 10 µM, first compound 0.003 µM) 89.3% | viability, T/C (second compound 10 µM, first compound 0.00949 µM) 81.2% | viability, T/C (second compound 10 µM, first compound 0.03 µM) 68.7% | viability, T/C (second compound 10 µM, first compound 0.0949 µM) 46.2% | viability, T/C (second compound 10 µM, first compound 0.3 µM) 46.4%
